# Test results taken from patent publication EP1561465A2, “Methods of use of fluoroquinolone compounds against bacteria” (LG Life Sciences, Ltd., priority 1999, dated 2001).
# Where two headings read alike, the source gives them in different places.
# Experiments:
# Hafnia alvei = assay: MIC by agar dilution (NCCLS M7-A4), 288 enteropathogenic isolates, gemifloxacin and 15 other antimicrobials; type: cell-based
# Aeromonas spp. = assay: as above; type: cell-based
# Campylobacter jejuni = assay: as above; conditions: for MIC: Campylobacter jejuni
# Salmonella spp. = assay: as above; type: cell-based; conditions: for susceptible isolates: breakpoints; for MIC: Salmonella
# Yersinia enterocolitica = assay: as above; type: cell-based
# Shigella spp. = assay: as above; type: cell-based; conditions: for susceptible isolates: Shigella spp., breakpoints
# Procedure: [A. hydrophila (12), and A. sobria (4)], and 91 Campylobacter jejuni. […] The strains were stored in skimmed-milk at -80 °C until studied.
# The plates were incubated aerobically at 35 °C for 24 h, except for Campylobacter jejuni, where a microaerophilic atmosphere was obtained by using Campy Pack (Becton Dickinson, Cockeysville, MD, USA), and incubation was for 48 h. All organisms were tested with an inoculum of ≅ 10^4 cfu/spot. MICs were defined as the lower antibiotic concentration with no visible growth.
# Streptococcus pneumoniae = assay: MIC by agar dilution (NCCLS), 411 isolates Buenos Aires 1998-99; type: cell-based; conditions: S. pneumoniae
# Enterococcus faecalis = assay: MIC by agar macrodilution (NCCLS), 373 Gram positive isolates, Athens 1998; type: cell-based; conditions: for MIC50: read-out: MIC50
# [1] = 24 h, Hafnia alvei N= 32, read-out: MIC (mg/L) Range
# [2] = read-out: MIC (mg/L) 50%, Hafnia alvei N= 32
# [3] = read-out: MIC (mg/L) 90%, Hafnia alvei N= 32
# [4] = read-out: MIC (mg/L) 50%, Aeromonas spp. N= 16
# [5] = read-out: MIC (mg/L) 90%, Aeromonas spp. N= 16
# [6] = read-out: MIC (mg/L) 50%, Salmonella spp. N= 106
# [7] = read-out: MIC (mg/L) 90%, Salmonella spp. N= 106
# [8] = 24 h, Yersinia enterocolitica N= 22, read-out: MIC (mg/L) Range
# [9] = read-out: MIC (mg/L) 50%, Yersinia enterocolitica N= 22
# [10] = read-out: MIC (mg/L) 90%, Yersinia enterocolitica N= 22
# [11] = read-out: MIC (mg/L) 50%, Shigella spp. N= 21
# [12] = read-out: MIC (mg/L) 90%, Shigella spp. N= 21
# [13] = number of isolates at MIC […], n = 81
# [14] = number of isolates with MIC […], 14 isolates
compound,measurement,setting,value
colistin,% Susceptible,Hafnia alvei; Hafnia alvei N= 32,6%
same,MIC (mg/L) 50%,Hafnia alvei; Hafnia alvei N= 32,8 mg/L
same,MIC (mg/L) 90%,Hafnia alvei; Hafnia alvei N= 32,16 mg/L
same,MIC (mg/L) Range,Hafnia alvei; Hafnia alvei N= 32,0.5 to 16 mg/L
same,% Susceptible,Aeromonas spp.; Aeromonas spp. N= 16,81%
same,MIC (mg/L) 50%,Aeromonas spp.; Aeromonas spp. N= 16,2 mg/L
same,MIC (mg/L) 90%,Aeromonas spp.; Aeromonas spp. N= 16,4 mg/L
same,MIC (mg/L) Range,Aeromonas spp.; Aeromonas spp. N= 16,0.25 to 32 mg/L
same,% Susceptible,Campylobacter jejuni; Campylobacter jejuni N= 91,3%
same,MIC (mg/L) 50%,Campylobacter jejuni; Campylobacter jejuni N= 91,4 mg/L
same,MIC (mg/L) 90%,Campylobacter jejuni; Campylobacter jejuni N= 91,8 mg/L
same,MIC (mg/L) Range,Campylobacter jejuni; Campylobacter jejuni N= 91,1 to 32 mg/L
same,% Susceptible,Salmonella spp.; Salmonella spp. N= 106,32%
same,MIC (mg/L) 50%,Salmonella spp.; Salmonella spp. N= 106,8 mg/L
same,MIC (mg/L) 90%,Salmonella spp.; Salmonella spp. N= 106,8 mg/L
same,susceptible isolates,Salmonella spp.; Salmonella spp.,32%
same,% Susceptible,Yersinia enterocolitica; Yersinia enterocolitica N= 22,100%
same,MIC (mg/L) 50%,Yersinia enterocolitica; Yersinia enterocolitica N= 22,1 mg/L
same,MIC (mg/L) 90%,Yersinia enterocolitica; Yersinia enterocolitica N= 22,1 mg/L
same,MIC (mg/L) Range,Yersinia enterocolitica; Yersinia enterocolitica N= 22,0.5 to 1 mg/L
same,% Susceptible,Shigella spp.; Shigella spp. N= 21,100%
same,MIC (mg/L) 50%,Shigella spp.; Shigella spp. N= 21,0.25 mg/L
same,MIC (mg/L) 90%,Shigella spp.; Shigella spp. N= 21,0.25 mg/L
same,MIC (mg/L) Range,Shigella spp.; Shigella spp. N= 21,0.25 mg/L
"CO/N=C(\C(=O)N[C@@H]1C(=O)N2C(C(=O)O)=C(COC(C)=O)CS[C@H]12)c1csc(N)n1 [Cefotaxime, cefotaxime]",MIC,Hafnia alvei; [1],0.12 to 0.5 mg/L
same,susceptible isolates,"Hafnia alvei; Hafnia alvei, breakpoints",100%
same,MIC,Hafnia alvei; [2],0.25 mg/L
same,MIC,Hafnia alvei; [3],0.5 mg/L
same,MIC (mg/L) Range,Aeromonas spp.; Aeromonas spp. N= 16,≤0.015 to 0.12 mg/L
same,susceptible isolates,"Aeromonas spp.; Aeromonas spp., breakpoints",100%
same,MIC,Aeromonas spp.; [4],0.03 mg/L
same,MIC,Aeromonas spp.; [5],0.12 mg/L
same,susceptible isolates,"Campylobacter jejuni; C. jejuni, breakpoints",57%
same,MIC (mg/L) Range,Campylobacter jejuni; Campylobacter jejuni N= 91,2 to 32 mg/L
same,MIC,Campylobacter jejuni; read-out: MIC (mg/L) 50%,8 mg/L
same,MIC,Campylobacter jejuni; read-out: MIC (mg/L) 90%,16 mg/L
same,MIC (mg/L) Range,Salmonella spp.; Salmonella spp. N= 106,0.06 to 0.5 mg/L
same,susceptible isolates,Salmonella spp.; Salmonella spp.,100%
same,MIC,Salmonella spp.; [6],0.12 mg/L
same,MIC,Salmonella spp.; [7],0.12 mg/L
same,MIC,Yersinia enterocolitica; [8],0.06 to 0.12 mg/L
same,susceptible isolates,"Yersinia enterocolitica; Yersinia enterocolitica, breakpoints",100%
same,MIC,Yersinia enterocolitica; [9],0.06 mg/L
same,MIC,Yersinia enterocolitica; [10],0.06 mg/L
same,MIC,"Shigella spp.; 24 h, Shigella spp. N= 21, read-out: MIC (mg/L) Range",0.015 to 0.03 mg/L
same,susceptible isolates,Shigella spp.,100%
same,MIC,Shigella spp.; [11],≤ 0.015 mg/L
same,MIC,Shigella spp.; [12],0.03 mg/L
CC1(C)S[C@@H]2[C@H](NC(=O)[C@H](N)c3ccccc3)C(=O)N2[C@H]1C(=O)O [ampicillin],MIC,Hafnia alvei; [1],2 to 64 mg/L
same,MIC,Hafnia alvei; [2],16 mg/L
same,MIC,Hafnia alvei; [3],64 mg/L
same,susceptibility of isolates,Aeromonas spp.; Aeromonas spp.,non susceptible
same,MIC,Aeromonas spp.; [4],> 128 mg/L
same,MIC,Aeromonas spp.; [5],> 128 mg/L
same,MIC,Campylobacter jejuni; read-out: MIC (mg/L) 50%,8 mg/L
same,MIC,Campylobacter jejuni; read-out: MIC (mg/L) 90%,32 mg/L
same,Rates of non-susceptible microorganisms,Salmonella spp.; Salmonella spp.,23%
same,susceptible isolates,Salmonella spp.; Salmonella spp.,77%
same,MIC,Salmonella spp.; [6],4 mg/L
same,MIC,Salmonella spp.; [7],> 128 mg/L
same,MIC,Yersinia enterocolitica; [8],32 to 64 mg/L
same,susceptibility of isolates,Yersinia enterocolitica; Yersinia enterocolitica,non susceptible
same,MIC,Yersinia enterocolitica; [9],32 mg/L
same,MIC,Yersinia enterocolitica; [10],64 mg/L
same,susceptible isolates,Shigella spp.,43%
same,MIC,Shigella spp.; [11],64 mg/L
same,MIC,Shigella spp.; [12],> 128 mg/L
co-trimoxazole,isolates being resistant,Campylobacter jejuni; C. jejuni,4%
same,Rates of non-susceptible microorganisms,Salmonella spp.; Salmonella spp.,4%
same,isolates being resistant,Salmonella spp.; Salmonella spp.,4%
same,MIC90,Streptococcus pneumoniae; Penicillin intermediate (n = 17),8 µg/mL
same,MIC90,Streptococcus pneumoniae; Penicillin resistant (n = 4),>16 µg/mL
same,MIC90,Streptococcus pneumoniae; Penicillin susceptible (n = 69),8 µg/mL
CC[C@H]1OC(=O)[C@H](C)[C@@H](O[C@H]2C[C@@](C)(OC)[C@@H](O)[C@H](C)O2)[C@H](C)[C@@H](O[C@@H]2O[C@H](C)C[C@H](N(C)C)[C@H]2O)[C@](C)(O)C[C@@H](C)C(=O)[C@H](C)[C@@H](O)[C@]1(C)O [erythromycin],isolates inhibited by a concentration ≤0.5 mg/l,Campylobacter jejuni; C. jejuni,77%
same,concentration inhibiting all the other isolates,Campylobacter jejuni; C. jejuni isolates other than the highly resistant strain,≤ 4 mg/L
same,MIC,Campylobacter jejuni,128 mg/L
same,MIC,Campylobacter jejuni; read-out: MIC (mg/L) 50%,0.5 mg/L
same,MIC,Campylobacter jejuni; read-out: MIC (mg/L) 90%,1 mg/L
same,MIC50,"Enterococcus faecalis; Enterococcus faecalis, continuation of the preceding table (title not shown), 14 isolates",≥ 32 µg/mL
same,MIC50,"Enterococcus faecalis; Enterococcus faecalis, n = 81 isolates",8 µg/mL
same,MIC90,"Enterococcus faecalis; Enterococcus faecalis, n = 81 isolates, read-out: MIC90",≥ 32 µg/mL
same,MIC90,"Enterococcus faecalis; continuation of the preceding table (title not shown), 14 isolates",≥32 µg/mL
same,MIC distribution (µg/ml) 0.03,"Enterococcus faecalis; number of isolates at MIC 0.03 µg/ml, n = 81",0
same,MIC distribution (µg/ml) 0.06,"Enterococcus faecalis; number of isolates at MIC 0.06 µg/ml, n = 81",0
same,MIC distribution (µg/ml) 0.5,"Enterococcus faecalis; number of isolates at MIC 0.5 µg/ml, n = 81",1
same,MIC distribution (µg/ml) 1,"Enterococcus faecalis; number of isolates at MIC 1 µg/ml, n = 81",2
same,MIC distribution (µg/ml) 2,"Enterococcus faecalis; number of isolates at MIC 2 µg/ml, n = 81",12
same,MIC distribution (µg/ml) 4,"Enterococcus faecalis; number of isolates at MIC 4 µg/ml, n = 81",16
same,MIC distribution (µg/ml) 8,"Enterococcus faecalis; number of isolates at MIC 8 µg/ml, n = 81",4
same,MIC distribution (µg/ml) 16,"Enterococcus faecalis; number of isolates at MIC 16 µg/ml, n = 81",1
same,MIC distribution (µg/ml) 0.125,Enterococcus faecalis; [13],1
same,MIC distribution (µg/ml) 0.25,Enterococcus faecalis; [13],1
same,MIC distribution (µg/ml) ≤0.015,"Enterococcus faecalis; number of isolates at MIC ≤[…], n = 81",0
same,MIC distribution (µg/ml) ≥32,"Enterococcus faecalis; number of isolates at MIC ≥32 µg/ml, n = 81",39
same,MIC distribution (µg/ml) 0.03,"Enterococcus faecalis; number of isolates with MIC 0.03 µg/ml, 14 isolates",0
same,MIC distribution (µg/ml) 0.06,"Enterococcus faecalis; number of isolates with MIC 0.06 µg/ml, 14 isolates",0
same,MIC distribution (µg/ml) 0.5,"Enterococcus faecalis; number of isolates with MIC 0.5 µg/ml, 14 isolates",0
same,MIC distribution (µg/ml) 1,"Enterococcus faecalis; number of isolates with MIC 1 µg/ml, 14 isolates",0
same,MIC distribution (µg/ml) 2,"Enterococcus faecalis; number of isolates with MIC 2 µg/ml, 14 isolates",2
same,MIC distribution (µg/ml) 4,"Enterococcus faecalis; number of isolates with MIC 4 µg/ml, 14 isolates",2
same,MIC distribution (µg/ml) 8,"Enterococcus faecalis; number of isolates with MIC 8 µg/ml, 14 isolates",1
same,MIC distribution (µg/ml) 16,"Enterococcus faecalis; number of isolates with MIC […] µg/ml, 14 isolates",0
same,MIC distribution (µg/ml) 0.125,Enterococcus faecalis; [14],0
same,MIC distribution (µg/ml) 0.25,Enterococcus faecalis; [14],0
same,MIC distribution (µg/ml) ≤0.015,"Enterococcus faecalis; number of isolates with MIC ≤[…], 14 isolates",0
same,MIC distribution (µg/ml) ≥32,"Enterococcus faecalis; number of isolates with MIC ≥[…] µg/ml, 14 isolates",9
